# “Also recorded” adds a separate entry of the source. Like-named read-outs stand apart in the source and are kept apart here.
# Columns and labels:
# [1] = Dynamic vapor sorption (DVS); format: physicochemical; settings: for Hygroscopicity: in words, up to about 95% relative humidity
# From the text: Dynamic vapor sorption data was collected on a Surface Measurement System DVS Intrinsic instrument. The samples were not dried prior to analysis. […] Data were not corrected for the initial moisture content of the sample.
# [2] = Method: Four vials were prepared and stored at 2-8° C. or […] according to Table B2. The samples were scheduled initially to pull for testing at 3 weeks and 6 weeks time points.
# For appearance, each unopened vial was visually examined for color, clumping, and flowability.
# Based on the molecular weights, and expected UV response factors used in this study, the expected analytical sample concentrations were within the range of the 25HC3S sodium reference standards (0.75 mg/mL to 1.25 mg/mL as 25HC3S Sodium Salt).
# Samples were prepared by pipetting 20 mL of 100% methanol into each vial and mixing well, with sonication and vortexing to fully dissolve the samples for HPLC analysis.
# HPLC analysis was performed.
# [3] = remark: listed apart in the source
# Method: Angle of repose is measured as follows. Powder is poured from a funnel onto a flat surface until a cone of powder is created. The angle of repose is calculated according to the following equation: […]
# The height of the cone was estimated with calipers.
# [4] = 5 mL cylinder, 300 taps
# Method: Although there are some variations in the method of determining the compressibility index and Hausner ratio, the basic procedure is to measure the unsettled apparent volume, VO, and the final tapped volume, Vf, of the powder after tapping the material until no further volume changes occur. The compressibility index and the Hausner ratio are calculated as follows: […]
# Powder was carefully poured into a 5 mL glass graduated cylinder (to contain) until it was close to or at 5.0 mL. This initial volume was recorded as Vo. The graduated cylinder was tapped on a hard surface for 200 times and the volume was recorded. The cylinder was tapped 100 times more, and the final volume Vf was recorded.
SMILES,Weight gain (water uptake) in DVS ([1]; from 5% up to about 95% relative humidity),"Physical and chemical solid-state stability, comments [2]",Temperature stability [2],% Recovery of 2-8° C./3 wk vs 60° C./1 wk; 2-8° C./5 wk vs 80° C./5 wk ([2]; 3 wk) [%],% Recovery of 2-8° C./3 wk vs 60° C./1 wk; 2-8° C./5 wk vs 80° C./5 wk ([2]; 5 wk) [%],"X-ray powder diffraction pattern after DVS ([1]; before vs after DVS, FIG. 3)",Hygroscopicity [1],Hygroscopicity ([1]; listed as crystalline 25HC3S choline),"Angle of Repose ([3]; about 2 g powder, cone of 21.14 mm diameter) [degrees]",Angle of Repose Rounded Whole Number ([3]; rounded) [degrees],Compressibility Index [4],Hausner Ratio [4]
"C[C@H](CCCC(C)(C)O)[C@H]1CC[C@H]2[C@@H]3CC=C4C[C@@H](OS(=O)(=O)[O-])CC[C@]4(C)[C@H]3CC[C@]12C.[Na+] [crystalline 25HC3S sodium, reference compound]",significant water uptake,–,–,–,–,–,–,–,–,–,–,–
"C[C@H](CCCC(C)(C)O)[C@H]1CC[C@H]2[C@@H]3CC=C4C[C@@H](OS(=O)(=O)[O-])CC[C@]4(C)[C@H]3CC[C@]12C.C[N+](C)(C)CCO [25HC3S choline, 25-Hydroxy-Cholest-5-En-3-Sulfate Choline]",–,Stable after 5 weeks at 80 °C physically and,good temperature stability,100.8,97.3,does not appreciably change,less hygroscopic,not appreciably hygroscopic; also recorded: less hygroscopic,34.9,35,42,1.72

# From patent US20240425545A1 (Durect Corporation, priority 2021, published 2024)
